Source: patent publication US9623028B2, “Methods of treating a cancer using substituted pyrrolopyrimidine compounds, compositions thereof” (Signal Pharmaceuticals, LLC, priority 2014, dated 2017)
Where two headings read alike, the source gives them in different places.

System: breast cancer cell lines
Test: cells
Details: for IC50: read-out: Growth Inhibition IC50; for GI50: read-out: Growth inhibition GI50
[1] = Homo sapiens, MDA-MB-175-VII, 96 h

**Q.** CNC(=O)c1ccc(Nc2nc(OC(C)C)c3c(-c4ccc5nc(C)oc5c4)c[nH]c3n2)c(OC)c1 [Compound 125, 4-((4-isopropoxy-5-(2-methylbenzo[d]oxazol-6-yl)-7H-pyrrolo[2,3-d]pyrimidin-2-yl)amino)-3-methoxy-N-methylbenzamide] was tested. Which IC50 (96 h) did it give?
**A.** The IC50 was 419 nM.

**Q.** What about the GI50 (96 h) of the same compound?
**A.** The GI50 was 116 nM.

**Q.** What about the IC50 (EFM-192A, 96 h) of the same compound?
**A.** Its IC50 is 1280 nM.

**Q.** And the GI50 (EFM-192A, 96 h)?
**A.** Its GI50 is 294 nM.

**Q.** And the IC50 (HCC202, 96 h)?
**A.** Its IC50 is 190 nM.

**Q.** What about the GI50 (HCC202, 96 h) of the same compound?
**A.** Its GI50 is 28 nM.

**Q.** What about the IC50 (HCC1500, 96 h) of the same compound?
**A.** Its IC50 is 2280 nM.

**Q.** What about the GI50 (HCC1500, 96 h) of the same compound?
**A.** Its GI50 is 103 nM.

**Q.** What about the IC50 (Homo sapiens, AU565, 96 h) of the same compound?
**A.** The IC50 was 21 nM.

**Q.** What about the GI50 (Homo sapiens, AU565, 96 h) of the same compound?
**A.** The GI50 was 16 nM.

**Q.** And the IC50 (Homo sapiens, BT-20, 96 h)?
**A.** Its IC50 is 44 nM.

**Q.** And the GI50 (Homo sapiens, BT-20, 96 h)?
**A.** Its GI50 is 28 nM.

**Q.** And the IC50 (Homo sapiens, BT-474, 96 h)?
**A.** The IC50 was 595 nM.

**Q.** What about the GI50 (Homo sapiens, BT-474, 96 h) of the same compound?
**A.** The GI50 was 10000 nM.

**Q.** And the IC50 (Homo sapiens, BT-483, 96 h)?
**A.** Its IC50 is 3400 nM.

**Q.** What about the IC50 (Homo sapiens, BT-549, 96 h) of the same compound?
**A.** The IC50 was 66 nM.

**Q.** What about the GI50 (Homo sapiens, BT-549, 96 h) of the same compound?
**A.** The GI50 was 34 nM.

**Q.** What about the IC50 (Homo sapiens, CAL-51, 96 h) of the same compound?
**A.** The IC50 was 10 nM.

**Q.** What about the GI50 (Homo sapiens, CAL-51, 96 h) of the same compound?
**A.** Its GI50 is 9 nM.

**Q.** What about the IC50 (Homo sapiens, CAL-85-1, 96 h) of the same compound?
**A.** The IC50 was 93 nM.

**Q.** And the GI50 (Homo sapiens, CAL-85-1, 96 h)?
**A.** Its GI50 is 29 nM.

**Q.** What about the IC50 (Homo sapiens, CAL-120, 96 h) of the same compound?
**A.** Its IC50 is 272 nM.

**Q.** What about the GI50 (Homo sapiens, CAL-120, 96 h) of the same compound?
**A.** Its GI50 is 10000 nM.

**Q.** And the IC50 (Homo sapiens, CAL-148, 96 h)?
**A.** Its IC50 is 168 nM.

**Q.** What about the GI50 (Homo sapiens, CAL-148, 96 h) of the same compound?
**A.** The GI50 was 47 nM.

**Q.** What about the IC50 (Homo sapiens, CAMA-1, 96 h) of the same compound?
**A.** Its IC50 is 763 nM.

**Q.** What about the GI50 (Homo sapiens, CAMA-1, 96 h) of the same compound?
**A.** The GI50 was 590 nM.

**Q.** What about the IC50 (Homo sapiens, DU-4475, 96 h) of the same compound?
**A.** Its IC50 is 246 nM.

**Q.** What about the GI50 (Homo sapiens, DU-4475, 96 h) of the same compound?
**A.** The GI50 was 38 nM.

**Q.** What about the IC50 (Homo sapiens, EFM-19, 96 h) of the same compound?
**A.** The IC50 was 181 nM.

**Q.** And the GI50 (Homo sapiens, EFM-19, 96 h)?
**A.** The GI50 was 35 nM.

**Q.** What about the IC50 (Homo sapiens, EVSA-T, 96 h) of the same compound?
**A.** The IC50 was 206 nM.

**Q.** What about the GI50 (Homo sapiens, EVSA-T, 96 h) of the same compound?
**A.** Its GI50 is 6000 nM.

**Q.** What about the IC50 (Homo sapiens, HCC38, 96 h) of the same compound?
**A.** The IC50 was 12 nM.

**Q.** And the GI50 (Homo sapiens, HCC38, 96 h)?
**A.** Its GI50 is 9 nM.

**Q.** What about the IC50 (Homo sapiens, HCC70, 96 h) of the same compound?
**A.** The IC50 was 268 nM.

**Q.** And the GI50 (Homo sapiens, HCC70, 96 h)?
**A.** The GI50 was 47 nM.

**Q.** And the IC50 (Homo sapiens, HCC1143, 96 h)?
**A.** Its IC50 is 481 nM.

**Q.** What about the GI50 (Homo sapiens, HCC1143, 96 h) of the same compound?
**A.** The GI50 was 215 nM.

**Q.** And the IC50 (Homo sapiens, HCC1187, 96 h)?
**A.** Its IC50 is 31 nM.

**Q.** What about the GI50 (Homo sapiens, HCC1187, 96 h) of the same compound?
**A.** The GI50 was 27 nM.

**Q.** And the IC50 (Homo sapiens, HCC1419, 96 h)?
**A.** Its IC50 is 2510 nM.

**Q.** And the GI50 (Homo sapiens, HCC1419, 96 h)?
**A.** Its GI50 is 10000 nM.

**Q.** What about the IC50 (Homo sapiens, HCC1428, 96 h) of the same compound?
**A.** The IC50 was 472 nM.

**Q.** What about the GI50 (Homo sapiens, HCC1428, 96 h) of the same compound?
**A.** Its GI50 is 326 nM.

**Q.** And the IC50 (Homo sapiens, HCC1569, 96 h)?
**A.** Its IC50 is 408 nM.

**Q.** And the GI50 (Homo sapiens, HCC1569, 96 h)?
**A.** Its GI50 is 88 nM.

**Q.** And the IC50 (Homo sapiens, HCC1806, 96 h)?
**A.** The IC50 was 11 nM.

**Q.** And the GI50 (Homo sapiens, HCC1806, 96 h)?
**A.** Its GI50 is 8 nM.

**Q.** What about the IC50 (Homo sapiens, HCC1937, 96 h) of the same compound?
**A.** The IC50 was 311 nM.

**Q.** And the GI50 (Homo sapiens, HCC1937, 96 h)?
**A.** The GI50 was 6380 nM.

**Q.** What about the IC50 (Homo sapiens, HCC1954, 96 h) of the same compound?
**A.** The IC50 was 68 nM.

**Q.** And the GI50 (Homo sapiens, HCC1954, 96 h)?
**A.** The GI50 was 27 nM.

**Q.** And the IC50 (Homo sapiens, HDQ-P1, 96 h)?
**A.** Its IC50 is 83 nM.

**Q.** And the GI50 (Homo sapiens, HDQ-P1, 96 h)?
**A.** The GI50 was 106 nM.

**Q.** And the IC50 (Homo sapiens, Hs-578T, 96 h)?
**A.** The IC50 was 41 nM.

**Q.** What about the GI50 (Homo sapiens, Hs-578T, 96 h) of the same compound?
**A.** The GI50 was 47 nM.

**Q.** And the IC50 (Homo sapiens, JIMT-1, 96 h)?
**A.** Its IC50 is 165 nM.

**Q.** What about the GI50 (Homo sapiens, JIMT-1, 96 h) of the same compound?
**A.** The GI50 was 61 nM.

**Q.** What about the IC50 (Homo sapiens, MCF7, 96 h) of the same compound?
**A.** Its IC50 is 12 nM.

**Q.** And the GI50 (Homo sapiens, MCF7, 96 h)?
**A.** The GI50 was 11 nM.

**Q.** What about the IC50 (Homo sapiens, MDA-MB-134-VI, 96 h) of the same compound?
**A.** The IC50 was 3170 nM.

**Q.** And the IC50 (Homo sapiens, MDA-MB-157, 96 h)?
**A.** Its IC50 is 631 nM.

**Q.** And the GI50 (Homo sapiens, MDA-MB-157, 96 h)?
**A.** The GI50 was 114 nM.

**Q.** And the IC50 [1]?
**A.** The IC50 was 2840 nM.

**Q.** And the GI50 [1]?
**A.** The GI50 was 5280 nM.

**Q.** What about the IC50 (Homo sapiens, MDA-MB-231, 96 h) of the same compound?
**A.** The IC50 was 31 nM.

**Q.** And the GI50 (Homo sapiens, MDA-MB-231, 96 h)?
**A.** The GI50 was 19 nM.

**Q.** And the IC50 (Homo sapiens, MDA-MB-361, 96 h)?
**A.** Its IC50 is 1470 nM.

**Q.** And the GI50 (Homo sapiens, MDA-MB-361, 96 h)?
**A.** The GI50 was 91 nM.

**Q.** And the IC50 (Homo sapiens, MDA-MB-415, 96 h)?
**A.** The IC50 was 5510 nM.

**Q.** And the GI50 (Homo sapiens, MDA-MB-415, 96 h)?
**A.** Its GI50 is 10000 nM.

**Q.** What about the IC50 (Homo sapiens, MDA-MB-436, 96 h) of the same compound?
**A.** Its IC50 is 510 nM.

**Q.** What about the GI50 (Homo sapiens, MDA-MB-436, 96 h) of the same compound?
**A.** The GI50 was 999 nM.

**Q.** What about the IC50 (Homo sapiens, MDA-MB-453, 96 h) of the same compound?
**A.** Its IC50 is 668 nM.

**Q.** And the GI50 (Homo sapiens, MDA-MB-453, 96 h)?
**A.** Its GI50 is 10000 nM.

**Q.** And the IC50 (Homo sapiens, MDA-MB-468, 96 h)?
**A.** Its IC50 is 24 nM.

**Q.** And the GI50 (Homo sapiens, MDA-MB-468, 96 h)?
**A.** The GI50 was 23 nM.

**Q.** What about the IC50 (Homo sapiens, MFM-223, 96 h) of the same compound?
**A.** Its IC50 is 172 nM.

**Q.** And the GI50 (Homo sapiens, MFM-223, 96 h)?
**A.** The GI50 was 43 nM.

**Q.** What about the IC50 (Homo sapiens, SK-BR-3, 96 h) of the same compound?
**A.** Its IC50 is 272 nM.

**Q.** What about the GI50 (Homo sapiens, SK-BR-3, 96 h) of the same compound?
**A.** The GI50 was 81 nM.

**Q.** And the IC50 (Homo sapiens, T47D, 96 h)?
**A.** Its IC50 is 336 nM.

**Q.** What about the GI50 (Homo sapiens, T47D, 96 h) of the same compound?
**A.** Its GI50 is 81 nM.

**Q.** What about the IC50 (Homo sapiens, UACC-812, 96 h) of the same compound?
**A.** The IC50 was 296 nM.

**Q.** What about the GI50 (Homo sapiens, UACC-812, 96 h) of the same compound?
**A.** The GI50 was 319 nM.

**Q.** And the IC50 (Homo sapiens, UACC-893, 96 h)?
**A.** Its IC50 is 787 nM.

**Q.** And the IC50 (Homo sapiens, ZR-75-1, 96 h)?
**A.** The IC50 was 3310 nM.

**Q.** What about the GI50 (Homo sapiens, ZR-75-1, 96 h) of the same compound?
**A.** Its GI50 is 32 nM.

**Q.** And the IC50 (Homo sapiens, ZR-75-30, 96 h)?
**A.** Its IC50 is 715 nM.

**Q.** What about the IC50 (KPL-1, 96 h) of the same compound?
**A.** Its IC50 is 64 nM.

**Q.** What about the GI50 (KPL-1, 96 h) of the same compound?
**A.** The GI50 was 126 nM.

**Q.** And the IC50 (MT-3, 96 h)?
**A.** Its IC50 is 8500 nM.

**Q.** And the GI50 (MT-3, 96 h)?
**A.** Its GI50 is 5760 nM.
